# Assay results as given in US20090143279A1 (priority 2007, published 2009).
# Values joined by “and” are separate entries in the source; they are usually repeats but may differ in a detail not shown here. Equal entries are not always repeated. Structures can show the parent of a compound that is named as a salt. Where a SMILES comes first, the peptide text is derived from it.
# System: cytochrome c
# Format: cell-based, mouse
# Details: not given
Structure (SMILES),cyt c,cyt c (composite Z-score vs DMSO mock-treated wells),cyt c (composite Z-score vs DMSO),cyt c (composite Z-score)
CC(=C(CCO)SSCC1CCCO1)N(C=O)Cc1cnc(C)nc1N (stereo in doubt) [fursultiamine],0.477,–,–,–
NC1(C(=O)O)CCC1 [1-aminocyclobutane carboxylic acid],−0.335,–,–,–
Cc1cc(O)cc(=O)o1 [4-hydroxy-6-methylpyran-2-one],−0.316,–,–,–
NCCCCCC(=O)O [6-aminocaproic acid],–,−0.680,–,–
Cc1n[nH]c(=O)[nH]c1=O [6-azathymine],0.583,–,–,–
"Nc1c2c(nc3ccccc13)CCCC2 [9-amino-1,2,3,4-tetrahydroacridine]",–,–,0.967,–
CC(=O)N[C@@H](CC(C)C)C(=O)O [N-acetyl-L-leucine],0.648,–,–,–
CNc1ccccc1C(=O)O [N-methylanthranilic acid],0.299,–,–,–
CC(=O)Nc1ccccc1 [acetanilide],–,–,0.532,–
CC(=O)Nc1nnc(S(N)(=O)=O)s1 [acetazolamide],–,–,0.698 and 0.613,–
NCCCCCC(=O)O [aminocaproic acid],–,0.280,–,–
NC1(C(=O)O)CC1 [aminocyclopropanecarboxylic acid],–,–,0.213,–
Cn1c(=O)c2[nH]cnc2n(C)c1=O [aminophylline],–,–,0.177,–
"CC(C)NCC(O)COc1ccc(CC(N)=O)cc1 (centres unmarked) [atenolol, reference compound]",–,–,0.403,–
"CC(C)c1c(C(=O)Nc2ccccc2)c(-c2ccccc2)c(-c2ccc(F)cc2)n1CC[C@@H](O)C[C@@H](O)CC(=O)O [atorvastatin, reference compound]",−1.023,–,–,–
CN1[C@@H]2CC[C@H]1C[C@@H](OC(=O)C(CO)c1ccccc1)C2 (some centres unmarked) [atropine sulfate],0.071,–,–,–
CN1[C@@H]2CC[C@H]1C[C@@H](OC(=O)C(CO)c1ccccc1)C2 (some centres unmarked) [atropine],1.709,–,–,–
CCCC1C(=O)N2C(N(C)C)=Nc3ccc(C)cc3N2C1=O (centres unmarked) [azapropazone],0.418,–,–,–
CN1[C@@H]2CC[C@H]1C[C@@H](OC(c1ccccc1)c1ccccc1)C2 [benztropine],–,−1.170,–,–

Structure (SMILES),cyt c,cyt c (composite Z-score vs DMSO mock-treated wells),cyt c (composite Z-score vs DMSO),cyt c (composite Z-score)
O=C(OCc1ccccc1)c1ccccc1 [benzyl benzoate],–,–,0.394,–
CC1=C(/C=C/C(C)=C/C=C/C(C)=C/C=C/C=C(C)/C=C/C=C(C)/C=C/C2=C(C)CCCC2(C)C)C(C)(C)CCC1 [beta-carotene],0.027,–,–,–
CC(C)NCC(O)COc1ccc(CCOCC2CC2)cc1 (centres unmarked) [betaxolol],0.064,–,–,–
c1ccc(-c2ccc(C(c3ccccc3)n3ccnc3)cc2)cc1 (centres unmarked) [bifonazole],0.179,–,–,–
CC[N+](C)(C)Cc1ccccc1Br [bretylium],0.560,–,–,0.295
O=C1CC2(CCCC2)CC(=O)N1CCCCN1CCN(c2ncccn2)CC1 [buspirone],0.228,–,–,–
Cn1c(=O)c2c(ncn2C)n(C)c1=O [caffeine],–,–,0.292,–
CC1(C)[C@@H](OC(=O)CCC(=O)O)CC[C@]2(C)[C@H]3C(=O)C=C4[C@@H]5C[C@@](C)(C(=O)O)CC[C@]5(C)CC[C@@]4(C)[C@]3(C)CC[C@@H]12 [carbenoxolone],0.145,–,–,–
C[C@@H]1CC[C@H]2C(C)(C)[C@H]3C[C@@]12CC[C@@]3(C)O [cedrol],−0.218,–,–,–
O=C(O)COCCN1CCN(C(c2ccccc2)c2ccc(Cl)cc2)CC1 (centres unmarked) [cetirizine],0.507,–,–,–
CC(C)CCC[C@@H](C)[C@H]1CC[C@H]2[C@@H]3CC=C4CC(=O)CC[C@]4(C)[C@H]3CC[C@]12C [cholest-5-en-3-one],0.600,–,–,–
C[C@H](CCC(=O)O)[C@H]1CC[C@H]2[C@@H]3[C@H](O)C[C@@H]4C[C@H](O)CC[C@]4(C)[C@H]3C[C@H](O)[C@]12C [cholic acid],0.514,–,–,–
C[N+](C)(C)CCO [choline],–,–,0.713,–
CN/C(=N/CCSCc1nc[nH]c1C)NC#N [cimetidine],0.794 and 0.587,–,–,–
CCN(CC)CCOc1ccc(C(=C(Cl)c2ccccc2)c2ccccc2)cc1 [clomiphene],0.699,0.025,–,–
Nc1cc(C(Cl)=C(Cl)Cl)c(S(N)(=O)=O)cc1S(N)(=O)=O [clorsulon],−0.186,–,–,–
C[C@]12C[C@H](O)[C@H]3[C@@H](CCC4=CC(=O)CC[C@@]43C)[C@@H]1CC[C@@H]2C(=O)CO [corticosterone],−0.379,–,–,–
CC1(C)S[C@@H]2[C@H](NC(=O)C3(N)CCCCC3)C(=O)N2[C@H]1C(=O)O [cyclacillin],–,–,–,−0.886
O=P1(N(CCCl)CCCl)NCCCO1 (centres unmarked) [cyclophosphamide],−0.088,–,–,–

# Same assay, conditions: composite Z-score vs mock-treated (DMSO) wells; concentration of each compound in μM
row,Structure (SMILES),cyt c
1,NCC(CC(=O)O)c1ccc(Cl)s1 (centres unmarked) [4-amino-3-(5-chlorothien-2-yl)butanoic acid],0.593
2,"COc1ccc(-c2cc(=O)c3c(OC)cc(O)cc3o2)cc1 [5,4′-dimethoxy-7-hydroxyflavone]",0.173
3,CC(=O)N[C@@H](CC(=O)O)C(=O)N[C@@H](CCC(=O)O)C(=O)O [N-acetylaspartylglutamic acid] (Ac-Asp-Glu-OH),0.480
4,N[C@@H](Cc1c[nH]cn1)C(=O)Nc1ccc2ccccc2c1 [N-histidyl-2-aminonaphthalene],0.214
5,CCOC(=O)C1=C(COCCN)NC(C)=C(C(=O)OC)C1c1ccccc1Cl (centres unmarked) [amlodipine],0.902
6,O=C1C(O)=C([C@H]2CC[C@H](c3ccc(Cl)cc3)CC2)C(=O)c2ccccc21 [atovaquone],−0.124
7,COc1ccc(CC2c3cc(OC)c(OC)cc3CC[N+]2(C)CCC(=O)OCCCCCOC(=O)CC[N+]2(C)CCc3cc(OC)c(OC)cc3C2Cc2ccc(OC)c(OC)c2)cc1OC (centres unmarked) [atracurium],1.176
8,CN1CCCC(n2nc(Cc3ccc(Cl)cc3)c3ccccc3c2=O)CC1 (centres unmarked) [azelastine],0.054
9,COc1c(O)cc2c(c1O)[C@@H]1O[C@H](CO)[C@@H](O)[C@H](O)[C@H]1OC2=O [bergenin],0.831
10,N=C(N)NOCC[C@H](N)C(=O)O [canavanine],−0.321
11,C[C@]12CCC(=O)C=C1C=C[C@@H]1[C@@H]2CC[C@@]2(C)[C@H]1CC[C@@]21CCC(=O)O1 [canrenone],0.816
12,COc1ccccc1OCCNCC(O)COc1cccc2[nH]c3ccccc3c12 (centres unmarked) [carvedilol],−4.745
13,NC(=O)c1cc[n+](CC2=C(C(=O)O)N3C(=O)[C@@H](NC(=O)[C@@H](c4ccccc4)S(=O)(=O)[O-])[C@H]3SC2)cc1 [cefsulodin],−1.078
14,CC(C)(O/N=C(\C(=O)N[C@@H]1C(=O)N2C(C(=O)[O-])=C(C[n+]3ccccc3)CS[C@H]12)c1csc(N)n1)C(=O)O [ceftazidime],0.740
15,O=C(Cc1cccs1)N[C@@H]1C(=O)N2C(C(=O)[O-])=C(C[n+]3ccccc3)CS[C@H]12 [cephaloridine],−0.278
16,C=C[C@H]1CN2CC[C@H]1C[C@H]2[C@H](O)c1ccnc2ccccc12 [cinchonidine],−0.164
17,C[N+](C)(C)CCOP(=O)(O)OP(=O)([O-])OC[C@H]1O[C@@H](n2ccc(N)nc2=O)[C@H](O)[C@@H]1O [citicoline],0.322

# Same assay, conditions: normalized score (composite Z-score vs DMSO mock-treated wells); compound concentration (μM)
row,Structure (SMILES),cyt c
1,CC(C)NCC(O)COc1ccc(COCCOC(C)C)cc1 (centres unmarked) [bisoprolol],0.874
2,COc1cc(N)c(Cl)cc1C(=O)NC1CCN(CCCOc2ccc(F)cc2)CC1OC (centres unmarked) [cisapride],−0.495
